Assay results from US20250064773A1, “TARGETING ERO1 ALPHA WITH AURONE DERIVATIVES” (West Virginia University Board of Governors on behalf of …, priority 2021, published 2025).

Biological target: T1, recombinant ERO1α (Homo sapiens, UniProt Q96HE7, C104A/C131A/C166A)
T1 construct: made in house
T1 sequence (Q96HE7 22-468 C104A/C131A/C166A): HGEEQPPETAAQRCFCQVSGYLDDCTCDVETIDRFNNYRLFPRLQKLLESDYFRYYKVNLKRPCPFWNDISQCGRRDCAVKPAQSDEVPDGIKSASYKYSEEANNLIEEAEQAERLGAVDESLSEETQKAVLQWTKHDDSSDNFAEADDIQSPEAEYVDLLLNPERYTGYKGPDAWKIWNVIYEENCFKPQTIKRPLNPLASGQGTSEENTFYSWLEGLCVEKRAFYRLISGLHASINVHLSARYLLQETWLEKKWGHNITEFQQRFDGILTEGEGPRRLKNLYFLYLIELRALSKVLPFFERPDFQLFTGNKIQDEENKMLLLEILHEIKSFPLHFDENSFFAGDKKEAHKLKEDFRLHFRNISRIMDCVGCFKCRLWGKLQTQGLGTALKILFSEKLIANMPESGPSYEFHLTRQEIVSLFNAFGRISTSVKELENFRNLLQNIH
Assay: Surface plasma resonance (Biacore) binding
Conditions: SPR
Protocol: Surface plasma resonance (SPR) was utilized as an orthogonal assay to confirm direct binding between T151742 and ERO1α. For the SPR assay, recombinant ERO1α was crosslinked to a C5 chip and varying concentrations of ligand T151742 were evaluated for detection of changes in refractive index, due to change in mass on the chip when ligand is bound to the protein. […] The relatively high Kd value is in part due to the fast off-rate.
Cell Lines: PC-9 cell line used was obtained from Sigma Aldrich and grown in RPMI 1640 medium with 10% fetal bovine serum and 1% penicillin/streptomycin. HCC4006, U266, MM1.s, and Beas-2B cell lines were obtained from ATCC and cultured in either RPMI 1640 or DMEM with 10% fetal bovine serum and 1% penicillin/streptomycin. […] Plate was then read on the BioTek Cytation 5 at 530/590 nm. […] Plate was then read at 570 nm. Treated wells were all compared to DMSO control wells to calculate percent growth inhibition and the IC50 was calculated using GraphPad (log(inhibitor) vs growth inhibition). […] Images were then quantified using ImageJ. […] Cells were aliquoted at 1 million cells per PCR tube in PBS and heated in Bio-Rad T100 thermal cycler at indicated temperatures (RT, 46° C., 48° C., 50° C., 52° C., 54° C., 56°, 58° C., and 60° C.) for 3 minutes and aggregation temperature was determined by western blot analysis. […]

## CN(C)c1ccc(/C=C2\Oc3cc(O)ccc3C2=O)cc1 [Compound T151742]
  off-rate: fast off-rate
